Source: PubChem BioAssay AID1996
≈ marks a conversion by molar mass, not a printed value.

Conditions: buffer; pH 7.4; 200.0 µM

Compound	solubility kinetic [µg/mL]
CNC(=O)Cn1nc(C)c(S(=O)(=O)N2CCOCC2)c1C	> 47.5
CCC1Sc2ccccc2N(CC(=O)NC2CC2)C1=O (stereo not given)	39.6 (≈ 136 µM)
CCc1ccc2nc(N(CCN(C)C)C(=O)/C=C/c3cccs3)sc2c1.Cl	< 0.3
N#Cc1ccccc1NC(=O)CN1CCOCC1	> 36.8
O=S(=O)(Nc1cccc(S(=O)(=O)N2CCCCC2)c1)c1ccc(Cl)s1	> 63.1
Cc1noc(C)c1S(=O)(=O)Nc1ccc(C#N)cc1	> 41.6
OC(CNCc1ccccc1C(F)(F)F)C(F)(F)F (stereo not given)	> 43.1
Cc1ccc(CNC(=O)c2cc(Cl)cc(Cl)c2)n1C	11.1 (≈ 37.4 µM)
CC(=O)c1cn(-c2ccc([N+](=O)[O-])cc2)c(=O)n(C)c1=O	> 43.4
O=C(O)C(=O)O.O=[N+]([O-])c1ccccc1CNCCc1c[nH]c2ccccc12	41.8
CNC(=O)CSc1nnc(-c2cnccn2)n1C	> 39.6
CCCc1ccc2oc(C(=O)N3CCC(COC)C3)c(C)c2c1 (stereo not given)	24.7 (≈ 78.3 µM)
NC(=O)[C@@H]1CCCN1Cc1nc(-c2ccccc2)no1	31.9 (≈ 117 µM)
CC(=O)c1cccc(NC(=O)COC(=O)C2CCCN2C(=O)c2cccs2)c1 (stereo not given)	6.5 (≈ 16.2 µM)
O=C(NCCN1CCOCC1)C(=O)c1c[nH]c2ccccc12	> 45.2
CC(=O)CC(=O)Nc1ccc(C(N)=O)cc1	> 33
O=C1CC(=O)N(c2cccc(F)c2)C(=O)N1	> 33.3
COc1cc(SC)ccc1C(=O)OCC(=O)N1CCCC1	> 46.4
CCN(CC)C(=O)C1=C(C)NC(=S)NC1c1ccc(C)s1 (stereo not given)	44.1 (≈ 136 µM)

Compound	solubility kinetic [µg/mL]
Cc1ccc2[nH]c3c(c2c1)CCCC3NCCO.Cl (stereo not given)	> 42.1
O=c1c2ccccc2nc(/C=C/c2ccccc2O)n1-c1ccccc1O	30.8 (≈ 86.4 µM)
C#CCOc1c(Cl)cc(/C=C2/C(=O)ON=C2C)cc1OC	43.5 (≈ 142 µM)
O=C(CN1CCN(c2ccc(F)cc2)CC1)c1ccc(O)cc1O	12.7 (≈ 38.4 µM)
CCN1CCN(C(=O)C2CC(=O)N(c3ccc(Cl)cc3)C2)CC1 (stereo not given)	> 50.4
CCOC(=O)C1CCN(C(=O)CCC2CCCC2)CC1	37.6 (≈ 134 µM)
OCCC1CN(Cc2cccn2-c2ncccn2)CCN1C1CCCC1 (stereo not given)	51.5 (≈ 145 µM)
COc1ccccc1C(=O)NCCC(=O)N1CCCC(C)C1 (stereo not given)	> 45.7
CN(C)c1cccc2c1c(NS(=O)(=O)c1cn(C)cn1)nn2C	> 50.2
CCC(Oc1ccc(C)c(C)c1)C(=O)N1CCCN(C)CC1 (stereo not given)	> 45.7
Cc1c(Cl)cnc(NC(=O)COC(=O)C2CC2)c1Cl	> 45.5
CC1(C)CC(NC(=O)c2cccc(F)c2)CC(C)(C)N1	40.8 (≈ 147 µM)
CC(C)c1ccc(S(=O)(=O)NC2CCS(=O)(=O)C2)cc1 (stereo not given)	> 47.6
Cc1ccc(NC(=O)CCC(=O)N2CCC(C)CC2)c([N+](=O)[O-])c1	> 50
Cc1cc(=O)[nH]c(SCC(=O)c2ccc(F)c(C)c2)n1	> 43.8
O=C(NC1CCCCCC1)c1cccc(S(=O)(=O)N2CCOCC2)c1	6.5 (≈ 17.7 µM)
O=C(NN1CCOCC1)c1cccc(F)c1	> 33.6
COc1ccc2cc(C(C)C(=O)N3CCC(C)CC3)ccc2c1 (stereo not given)	18.8 (≈ 60.4 µM)
COc1ccc(CNC(=O)C2CCN(S(C)(=O)=O)CC2)c(OC)c1	> 53.5

Compound	solubility kinetic [µg/mL]
COc1ccccc1CNC(=O)CN1C(=O)NC2(CCCCCC2)C1=O	> 53.9
CCN1CCC(NCC2CCCCC2)CC1	23.2 (≈ 103 µM)
Nc1ncc2[nH]cnc2n1	> 20.3
CC(C(=O)Nc1ccc(C#N)cc1)N1CCN(C(=O)C2CC2)CC1 (stereo not given)	> 49
Cn1c(SCC(=O)NCC2COc3ccccc3O2)nnc1C(F)(F)F (stereo not given)	> 58.3
C1CN(CCN2CCOCC2)CCN1	22.7 (≈ 114 µM)
Cc1ccc(N2C(=O)C3CCC(C)(C2=O)C3(C)C)cc1 (stereo not given)	26.7 (≈ 98.4 µM)
CCC(=O)N1CCN=C1SCc1c(F)cccc1Cl	12.6 (≈ 41.9 µM)
NC(=O)/C(=C\c1ccco1)NC(=O)c1ccc(Br)o1	42.9 (≈ 132 µM)
O=C(CN1CCOCC1)Nc1cc(C(F)(F)F)ccc1Cl	39.2 (≈ 121 µM)
COc1ccccc1CCNC1CCCCCC1	> 37.1
Cn1cc(S(=O)(=O)NCC2CCCO2)c(=O)n(C)c1=O (stereo not given)	> 45.5
Clc1ccc(COC(Cn2ccnc2)c2ccc(Cl)cc2Cl)c(Cl)c1.O=[N+]([O-])O (stereo not given)	26.3
CCCC(=O)Nc1ccc(C=C(C(C)=O)C(C)=O)cc1	> 41
Cc1ccc(NC(=O)C(=O)NCCCN2CCOCC2)c(C)c1	> 47.9
Cc1cccc(Cn2cc(C=O)c3ccccc32)c1	14.5 (≈ 58.2 µM)
O=C(NC1CCCCC1)C(=O)c1c[nH]c2ccccc12	1.1 (≈ 4.07 µM)
O=C(O)c1ccc(N2C(=O)CSC2=S)cc1	> 38
CCCCCOc1ccc(NC2=CC(=O)CCC2)cc1	> 41

The next lines start with the values.

solubility kinetic [µg/mL]	Compound
> 48.8	O=C(CNC(=O)C1CCCC1)Nc1ccccc1Br
7.7 (≈ 21.8 µM)	COC(=O)C1=C(C)N(Cc2ccc(OC)cc2)C(=O)/C1=C\c1ccco1
34.7 (≈ 108 µM)	CCOc1ccc(CN(C)C(=O)c2ccc3ccccc3n2)cc1
> 35.4	O=C1CNC(=S)N1C(CO)c1ccccc1 (stereo not given)
> 39	O=C(Cn1ccc([N+](=O)[O-])n1)NCc1ccccc1
11.7 (≈ 45.8 µM)	Cc1ccc(NC(=O)CCOc2ccccc2)cc1
> 48.2	O=C(CN1N=C(c2ccccc2)CCC1=O)NCc1ccccc1
> 38.3	CC1(C)Cc2ccccc2C(NN=C2CCCC2)=N1
1 (≈ 3.39 µM)	COC(=O)c1ccc(/C=C2\Oc3ccccc3NC2=O)cc1
12.2 (≈ 38.2 µM)	O=C(CSc1nc2c(c(=O)[nH]1)CCC2)Nc1cccc(F)c1
> 59.6	CC(NCC(=O)NCC(=O)Nc1ccc(F)cc1)c1cccc(C(F)(F)F)c1 (stereo not given)
< 0.4	Cc1cccc(N(Cc2cc3ccccc3[nH]c2=O)C(=O)c2cccs2)c1
40.2 (≈ 123 µM)	O=C(NCCc1csc(-c2ccccc2)n1)c1ccccc1F
24.5 (≈ 96.3 µM)	c1ccc(CN2CCN(c3ncccn3)CC2)cc1
31.9 (≈ 132 µM)	c1ccc(CNc2ncnc3sccc23)cc1
5.4	Cc1cc(C)nc(NCc2ccc(Cl)cc2)n1.Cl
34.2 (≈ 117 µM)	Cc1ccccc1NC(=S)Nc1cccc2cnccc12
25.7 (≈ 81 µM)	Cn1c(=O)n(Cc2ccc(Br)cc2)c2ccccc21
16.8 (≈ 59.3 µM)	CCn1c(C)c(C(=O)O)c2cc(OC)c3ccccc3c21
> 59.4	Cc1cccc(C(=O)NCC(=O)OCC(=O)c2ccc(Br)s2)c1
> 42.9	O=C(NCCOc1ccccc1)c1ccccc1[N+](=O)[O-]

solubility kinetic [µg/mL]	Compound
30.9 (≈ 103 µM)	Cc1ccc(OCC(=O)O/N=C(\N)c2ccncc2)c(C)c1
> 69.4	CN1CCN(c2nc3ccccc3nc2NS(=O)(=O)c2ccc(Br)cc2)CC1
38.4 (≈ 139 µM)	O=C(COC(=O)c1cnccn1)c1ccc(Cl)cc1
0.9 (≈ 3.02 µM)	CC(=O)c1c(-c2ccc(Cl)cc2)c2ccccc2[nH]c1=O
7.8 (≈ 24.6 µM)	Cn1c(=O)n(Cc2ccccc2Br)c2ccccc21
2.4 (≈ 7.71 µM)	O=C(Nc1ccc(N2CCCC2)cc1)c1ccccc1[N+](=O)[O-]
< 0.3	Cc1cc(-c2ccccc2)nc2oc3c(c12)NC(=O)CN(c1ccccc1)C3=O
2.3 (≈ 7.13 µM)	Cc1ccc(S(=O)(=O)N2CCN(c3ccccc3)CC2)s1
5.5 (≈ 16.2 µM)	CCOC(=O)Cc1csc(NC(=O)Cc2ccc(Cl)cc2)n1
38.1 (≈ 103 µM)	O=C(NCc1ccccc1)c1ccc2c(c1)C(=O)N(Cc1cccnc1)C2=O
16 (≈ 39.9 µM)	COC(=O)c1ccc(COC(=O)CSCC(=O)Nc2ccc(C)cc2C)cc1
> 38.2	O=C(COc1ccccc1Cl)N1CCNC1=O
2.4 (≈ 7.54 µM)	O=C1OC(c2ccc(Br)cc2)=N/C1=C\c1ccco1
> 38.9	CCc1ccc(OCCNC(=O)c2ccco2)cc1
2 (≈ 5.81 µM)	COc1ccccc1CC(=O)Nc1sc2c(c1C(N)=O)CCCC2
11.4 (≈ 27.3 µM)	CC1(CCc2ccccc2)NC(=O)N(CC(=O)Nc2ccc(OC(F)F)cc2)C1=O (stereo not given)
> 57.1	CS(=O)c1ccc(-n2c(=O)n(Cc3ccccc3)c(=O)c3[nH]cnc32)cc1 (stereo not given)
< 0.6	CC(=O)c1c(C)n(-c2ccc(Cl)cc2)c2ccc(O)cc12
30.4	CCOC(=O)c1c(CCl)nc2ccccc2c1C.Cl
0.5 (≈ 1.42 µM)	Cc1c([N+](=O)[O-])cc(C(=O)Nc2ccc3ncccc3c2)cc1[N+](=O)[O-]
0.2 (≈ 0.704 µM)	Cc1ccc(C)c(Nc2c([N+](=O)[O-])ccc3nonc23)c1

solubility kinetic [µg/mL]	Compound
9.6 (≈ 22.9 µM)	Cc1noc(C)c1COc1cccc(C(=O)Nc2ccc(Br)cc2F)c1
2.2 (≈ 7.55 µM)	COc1cccc(NC(=O)Cc2ccc3ccccc3c2)c1
3.1 (≈ 8.67 µM)	Cc1cccc(S(=O)(=O)Nc2nc3ccccc3nc2OC(C)C)c1
1.3 (≈ 3.69 µM)	CC(=O)Nc1cccc(C(=O)OC(C)C(=O)N2CCc3ccccc32)c1 (stereo not given)
0.5 (≈ 1.62 µM)	O=c1c2cc3c(nc2[nH]c(=S)n1-c1ccccc1)CCCC3
36.7 (≈ 108 µM)	CCc1ccc(CN(C)Cc2nc(COc3ccccc3)no2)nc1
34 (≈ 144 µM)	CCCNC(=O)Nc1nc2ccccc2s1
15.2 (≈ 64.1 µM)	O=Cc1ccc2c(c1)CCN2Cc1ccccc1
8.7 (≈ 22.5 µM)	COc1ccc(C(=O)Nc2cccc(S(=O)(=O)NCc3ccco3)c2)cc1
1.6 (≈ 5.72 µM)	Cc1cc(/C(N)=N/OC(=O)c2ccc(Cl)cc2)no1
26.6 (≈ 129 µM)	OC1CSc2nc3ccccc3n2C1 (stereo not given)
27.6 (≈ 91.9 µM)	Nc1nc(Nc2ccccc2)nc(N2CCCC2)c1[N+](=O)[O-]
> 50.9	O=C(Cc1nc(-c2cnccn2)no1)NNC(=O)Nc1ccccc1
27.1 (≈ 93.5 µM)	N/C(=N\OC(=O)Cc1ccc(Cl)cc1)c1ccncc1
0.7 (≈ 2.29 µM)	O=C1CC(c2ccc(F)cc2)CC2=C1C=Nc1ccccc1N2 (stereo not given)
> 49.1	O=C(CS(=O)(=O)c1ccccc1)Nc1ncc([N+](=O)[O-])s1
< 0.7	COc1cc(/C=C2/SC(=O)NC2=O)ccc1OCc1ccccc1
45.4 (≈ 147 µM)	O=C(CCC(=O)c1cccs1)NCc1ccccc1Cl
14.8 (≈ 53.7 µM)	Cc1ccc(C)c(OC(=O)c2cccnc2Cl)c1C
> 43.9	COc1ccc(S(=O)(=O)NCCc2ccccn2)cc1
2.7 (≈ 12.1 µM)	NC1=NC(=O)/C(=C/c2cccc(F)c2)S1
